Measurements from patent US20230165841A1, “PREVENTION AND INTERVENTION OF INFARCT EXPANSION FOLLOWING HEMORRHAGIC INFARCTIONS” (CEDARS-SINAI MEDICAL CENTER, priority 2020, published 2023).
Entries after “also recorded” stand apart in the source; their conditions may differ.

Columns and labels:
mice with reperfused MI = conditions: pre-treating prior to ischemia; cited from earlier work
[1] = cited from earlier work
cardiomyocyte culture = test: Total ROS in cardiomyocyte culture treated with Hx, DFP, hemin; type: cell-based; conditions: compared to controls; FIG. 16 axis μM/mg protein/min
Text: FIG. 16 is a bar graph depicting the total ROS production (μM/mg protein/min) in cardiomyocyte culture treated with different agents or control, indicating the importance of physiochemical state of degradation products of hemorrhage being the therapeutic targets.
Physiochemical features of degradation products of hemorrhage are important for determining optimal therapy. An early byproduct of hemorrhage is extracellular heme (an Fe^2+ complex), which is eventually internalized by cardiomyocytes. Applicant tested whether pretreating cardiomyocytes in culture with hemopexin (Hx), a heme scavenger, can rescue the cells from oxidative stress compared to an intracellular Fe^3+ chelator deferiprone (DFP). Methods: Studies were performed in an cardiomyocyte culture. Total ROS following treatment with Hx, DFP, hemin, hemin+Hx, hemin+DFP were measured. […] Summary: Location of hemorrhagic byproducts (intra- vs. extra-cellular) and oxidation state are critical features that need to be accounted for in the development of therapies against hMI. To develop an optimal ICT strategy against hMI we will identify the physiochemical features of hemorrhagic byproducts in rats with hMI sacrificed at different time points.

[2] = system: dogs with reperfused hemorrhagic MI; test: Deferiprone interventional arm in canine model of hemorrhagic MI (serial CMR); type: in vivo, dog
[3] = system: rats subjected to hMIs (90-min I/R); conditions: for LVEF: echocardiography, EDTA 40 mg/kg/day oral gavage upon reperfusion, followed 4 weeks, PBS 30±4%; for Adverse LV remodeling / cardioprotection: rats with hMI, post reperfusion treatment
post MI patients = conditions: 6 months of EDTA therapy starting 6-weeks post MI; cited from earlier work
[4] = system: rats with 90-min I/R (hMI); test: Hemopexin treatment of rats with 90-min I/R (hMI); type: in vivo, rat
Text: FIGS. 12A and 12B depict the therapeutic benefits of hemopexin (Hx). […] Note the ventricular dilation in rats treated with PBS (not evident Hx treated rates). Long- and shor-axis (along dotted lines) views are shown.
Background: Hemopexin (Hx), a known scavenger of heme, and a key byproduct of hemorrhage. Applicant tested whether treating rats with 90-min I/R (known to yield hMI) with Hx could reduce oxidative stress in the acute phase and improve LV remodeling in the chronic phase. Methods: Rats (n=12) underwent 90-min I/R: 50% of the animals were treated with Hx (700 μg, i.p. immediately and 2 days post reperfusion) and the rest were treated with PBS. LV function was determined with echo. Half of each group was sacrificed at 24-hrs and the rest were sacrificed at 1-month post MI. […] LVEF were: 51±4% (Hx+) vs 32±5% (control), p<0.05. Summary: Heme-specific scavenger, Hx, can attenuate the adverse effects of hMI.

[5] = DFP 100 mg/kg/day oral gavage from 3 days post reperfusion
[6] = vs EDTA-treated or placebo controls

c1ccc(-c2ccccn2)nc1 [BPD, 2,2-bipyridl]
Mitochondrial iron and reperfusion injury (mice with reperfused MI): could reduce

CC(=O)N(O)CCCCCNC(=O)CCC(=O)N(O)CCCCCNC(=O)CCC(=O)N(O)CCCCCN [DFO, deferoxamine]
Lipid solubility (note in Location column) [1]: (lipid insoluble)

Cc1c(O)c(=O)ccn1C [DFP, Deferiprone]
Total ROS, agent alone (cardiomyocyte culture): did not increase
Relative PDFF in the MI zones, change between D3 and Wk8 ([2]; DFP+/IMH+ group): did not show an increase
LVEF ([2]; DFP+/IMH+ group by M6, p<0.03): over 40%
Remote wall thickness, change over the 6-month period ([2]; DFP+/IMH+ group, diastolic): decreased
Magnitude of peak circumferential strain (Peak εc) vs DFP−/IMH+ group ([2]; Wk8 to M6 and D3 to M6, p<0.05): significant greater
Fat infiltration within the MI zones vs DFP−/IMH+ group ([2]; at M6): significantly lower
Infarct wall thickness, treated group compared to untreated group ([2]; at M6, p<0.05): +34%
Infarct-to-remote wall thickness (I:RWT), DFP+/IMH+ vs DFP−/IMH+ ([2]; at M6, p<0.05): +67%
Remote wall thickness, DFP−/IMH+ group compared to DFP+/IMH+ group ([2]; at M6, untreated larger, p<0.05): +28%
LVEF, DFP+/IMH+ group vs DFP−/IMH+ group ([2]; at Month 6, p<0.005): +36%
Fat content based on PDFF (normalized to D3) vs untreated group ([2]; at Wk8 and M6): marked reduction
End-systolic volume (ESV) vs DFP−/IMH+ group ([2]; at both Wk8 and Mo6, p<0.05): lower
Fat content within MI zone vs untreated control group ([2]; at the end of the treatment period (Wk8)): decreased precipitously
Safety of delayed treatment [3, 5]: safe
Iron and proinflammatory markers in the scarred myocardium ([3]; IL-1β, TNF-α, MMP9, vs EDTA-treated or placebo controls): reduced
Iron in MI zones ([3]; T2*-CMR / Prussian Blue, vs EDTA-treated or placebo controls): little to no iron; also recorded: much lower
LVEF [3, 5]: 42±4%
Adverse LV remodeling / cardioprotection [3]: marked reduction
LV dilatation [3, 6]: reduced
Wall thickness (infarcted and remote) [3, 6]: thicker

O=C(O)CN(CCN(CC(=O)O)CC(=O)O)CC(=O)O [EDTA, ethylenediaminetetraacetic acid]
LVEF [3, 5]: 32±3%
Adverse LV remodeling / cardioprotection [3]: did not decrease; also recorded: does not provide cardioprotection
Stability of ferric-EDTA complex ([1]; can be transformed to ferrous-EDTA in vivo): unstable
MACE (post MI patients): did not decrease

hemin
Total ROS, agent alone (cardiomyocyte culture): markedly increased

B1: hemopexin (protein, UniProt P02790 24-462, looked up)
Hemopexin: TPLPPTSAHGNVAEGETKPDPDVTERCSDGWSFDATTLDDNGTMLFFKGEFVWKSHKWDRELISERWKNFPSPVDAAFRQGHNSVFLIKGDKVWVYPPEKKEKGYPKLLQDEFPGIPSPLDAAVECHRGECQAEGVLFFQGDREWFWDLATGTMKERSWPAVGNCSSALRWLGRYYCFQGNQFLRFDPVRGEVPPRYPRDVRDYFMPCPGRGHGHRNGTGHGNSTHHGPEYMRCSPHLVLSALTSDNHGATYAFSGTHYWRLDTSRDGWHSWPIAHQWPQGPSAVDAAFSWEEKLYLVQGTQVYVFLTKGGYTLVSGYPKRLEKEVGTPHGIILDSVDAAFICPGSSRLHIMAGRRLWWLDLKSGAQATWTELPWPHEKVDGALCMEKSLGPNSCSANGPGLYLIHGPNLYCYSDVEKLNAAKALPQPQNVTSLLGCTH
notes: a known scavenger of heme
LV remodeling ([4]; 1-month post reperfusion, vs PBS-treated group): better
Total ROS (production within MI) ([4]; 24 hrs post reperfusion, Hx 700 μg i.p. immediately and 2 days post reperfusion, vs PBS control): significantly lower
LVEF ([4]; echo, Hx 700 μg i.p. immediately and 2 days post reperfusion, control 32±5%, p<0.05): 51±4%
Total ROS, agent alone (cardiomyocyte culture): did not increase
